Results as given in PMC7281419, “New Conjugates of Polyhydroxysteroids with Long-Chain Fatty Acids from the Deep-Water Far Eastern Starfish Ceramaster patagonicus and Their Anticancer Activity” (Marine Drugs, 2020).
Like-named read-outs stand apart in the source and are kept apart here.

What was measured:
[1] = system: herpes simplex virus type 1 (HSV-1); parameters: method as in PMID 20523000; details: in vitro; cited from earlier work
[2] = system: human liver carcinoma HepG2 cells; parameters: method as in PMID 20523000; details: in vitro; cited from earlier work
HCT 116 cells [3] = test: MTS cell viability assay (cytotoxic / cytostatic activity); assay type: cell-based, human; details: for IC50: Homo sapiens, 72 h incubation, read-out: concentration that caused 50% inhibition of growth (IC50)
Method: (§1) At the first stage of biological activity evaluation, the cytotoxicity of compounds 1–4 against mouse normal epidermal JB6 Cl41 cells, human breast cancer MDA-MB-231 cells, and colorectal carcinoma HCT 116 cells was determined by MTS assay, which is based on the cleavage of (3-(4,5-dimethylthiazol-2-yl)-5-(3-carboxymethoxyphenyl)-2-(4-sulfophenyl)-2H-tetrazolium) (MTS reagent) into a formazan product soluble in tissue culture medium.
(§2) That is why the cytostatic activity of compounds 1–4 was determined against JB6 Cl41, MDA-MB-231, and HCT 116 cell lines for 24, 48, and 72 h. […] The cytostatic effect of 2 was more prominent in colorectal carcinoma HCT 116 cells.
(§3) Figure 3 The cytostatic activity of compounds 1–4 against normal epidermal JB6 Cl41 cells, breast cancer MDA-MB-231 cells, and colorectal carcinoma HCT 116 cells. (A) JB6 Cl41, (B) MDA-MB-231, or (C) HCT 116 cells were treated with compounds 1–4 at concentrations of 1–100 µM for 24, 48, and 72 h. Cell viability was estimated using the MTS assay. Data are represented as the mean ± SD as determined from triplicate experiments.
(§4) To determine the cytotoxicity of compounds 1–4, JB6 Cl41, MDA-MB-231, and HCT 116 cells (1.0 × 10^4) were seeded in 200 µL of complete MEM/5% FBS, DMEM/10% FBS, and McCoy’s 5A/10% FBS medium, respectively, and incubated for 24 h at 37 °C in 5% CO2 incubator. The attached cells were incubated with fresh medium containing various concentrations of 1–4 (0–100 µM) or equivalent volume of DMSO (control) for additional 24 h. Subsequently, the cells were incubated with 15 µL MTS reagent for 3 h, and the absorbance of each well was measured at 490/630 nm using Power Wave XS microplate reader (BioTek, Winooski, VT, USA). All experimental conditions were assessed in triplicate.
(§5) To determine the effect of compounds 1–4 on cell proliferation, the tested cell lines (8 × 10^3 cells/200 µL) were treated with tested compounds at concentrations of 1, 10, 50, and 100 µM or equivalent volume of DMSO (control) and incubated for additional 24, 48, and 72 h at 37 °C in 5% CO2. MTS reagent (20 µL) was added to each well, and the cells were incubated for additional 3 h in 5% CO2 incubator. Absorbance was measured at 490/630 nm by microplate reader. All experimental conditions were assessed in triplicate.

MDA-MB-231 cells [4] = test: as above; assay type: cell-based, human; details: for IC50: Homo sapiens, 72 h incubation, read-out: concentration that caused 50% inhibition of growth (IC50)
Method: as §1, §2, §3, §4, §5

[5] = as above; assay type: cell-based, human; details: human, 100 µM, 24 h incubation, read-out: suppression of cell viability
Method: as §1, §2, §3, §4, §5

JB6 Cl41 cells = test: as above; assay type: cell-based, mouse; details: Mus musculus, 72 h incubation, read-out: concentration that caused 50% inhibition of growth (IC50)
Method: as §1, §2, §3, §4, §5

[6] = as above; assay type: cell-based, mouse; details: mouse, JB6 Cl41 cells (normal epidermal), 100 µM, 24 h incubation, read-out: suppression of cell viability
Method: as §1, §2, §3, §4, §5

HCT 116 cells [7] = test: Soft agar colony formation assay; assay type: cell-based; details: Homo sapiens, 336 h, 14 days
Method: (§6) The formation of colonies is one of the most stringent characteristics for malignant transformation in cells. In the present study the soft agar assay was used to investigate the effect of compounds 1–4 on capability of cancer cells to form colonies.
(§7) Figure 4 The effect of compounds 1–4 on colony formation in human cancer cells. MDA-MB-231 (A) or HCT 116 cells (B) (2.4 × 10^4) were treated with or without investigated compounds (20 µM) and applied onto 0.3% Basal Medium Eagle (BME) agar containing 10% FBS, 2 mM L-glutamine, and 25 µg/mL gentamicin. After 14 days of incubation, the number of colonies was evaluated under a microscope with the aid of the ImageJ software program. Results are expressed as the mean ± standard deviation (SD). The asterisks (** p < 0.01, *** p < 0.001) indicate a significant decrease in colony number of cancer cells treated by compounds compared with control.
(§8) To estimate the effects of 1–4 on colony formation (phenotype expression), MDA-MB-231 and HCT 116 cells (2.4 × 10^4 cells/200 µL) were treated equivalent volume of DMSO (control) or with compounds 1–4 (20 µM) in 1 mL of 0.3% Basal Medium Eagle (BME) agar containing 10% FBS, 2 mM L-glutamine, and 25 µg/mL gentamicin. The cultures were maintained in a 37 °C, 5% CO2 incubator for 14 days, and the cell colonies were scored using a Motic AE 20 microscope (XiangAn, Xiamen, China) and ImageJ software bundled with 64-bit Java 1.8.0_112 (NIH, Bethesda, MD, USA).

MDA-MB-231 cells [8] = test: Soft agar colony formation assay; assay type: cell-based; details: Homo sapiens, 336 h, 14 days
Method: as §6, §7, §8

HCT 116 cells [9] = test: Wound healing (cell migration) assay; assay type: cell-based, human; details: 20 µM, 48 h
Description: (§9) The metastasis process is proven to be the leading cause of cancer-related death. Metastasis is a multistep process that includes migration and invasion of cancer cells, hallmarks of malignancy. Therefore, we investigated the ability of compounds 1–4 to inhibit the migration of breast cancer MDA-MB-231 cells and colorectal carcinoma HCT 116 cells with high metastatic potential. […] Compounds 1, 3, and 4 prevented HCT 116 cell migration by 36%, 30%, and 24%, respectively (Figure 5). […]
(§10) Figure 5 The effect of compounds 1–4 on migration of human cancer cells. MDA-MB-231 (A,B) and HCT 116 (C,D) cells migration distance was estimated by measuring the width of the wound and expressed as a percentage of each control for the mean of wound closure area. All experiments were repeated at least three times in each group (n = 18 for control and each compound, n—quantity of photos). The magnification of representative photos is ×10. Results are expressed as the mean ± standard deviation (SD). The asterisks (* p < 0.05, ** p < 0.01, *** p < 0.001) indicate a significant decrease in migration of cells treated with compounds compared with the control.
(§11) MDA-MB-231 and HCT 116 cells (3 × 10^5 cells/mL) were seeded into six-well plates and grown to 80% confluence for 24 h. After removing the culture medium, the cells’ monolayer was scraped with a 200 µL sterile pipette tip to create a straight scratch. Then, MDA-MB-231 and HCT 116 cells were treated with equivalent volume of DMSO (control) or 1–4 at concentration of 20 µM and incubated for 48 h. All experiments were conducted in triplicate for each group. For the image analysis, cell migration into the wound area was photographed at the stages of 0 and 48 h using a Motic AE 20 microscope and ImageJ software. The cell migration distance was estimated by measuring the width of the wound and expressed as a percentage of each control for the mean wound closure area.

MDA-MB-231 cells [10] = test: Wound healing (cell migration) assay; assay type: cell-based, human; details: 20 µM, 48 h
Description: as §9, §10, §11

human lung cancer A549 = system: human lung cancer A549; parameters: method as in PMID 15104487; details: cited from earlier work
CNS cancer XF498 = system: CNS cancer XF498; parameters: method as in PMID 15104487; details: cited from earlier work
colon cancer HCT15 = system: colon cancer HCT15; parameters: method as in PMID 15104487; details: cited from earlier work
ovarian cancer SK-OV-3 = system: ovarian cancer SK-OV-3; parameters: method as in PMID 15104487; details: SK-OV-3 cells; cited from earlier work
melanoma SK-MEL-2 = system: melanoma SK-MEL-2; parameters: method as in PMID 15104487; details: SK-MEL-2 cells; cited from earlier work
[11] = HCT 116 cells (colorectal carcinoma)
[12] = MDA-MB-231 cells (breast cancer)

Row | SMILES | inhibitory activity against HSV-1 [1] | inhibitory activity against HepG2 cells [2] | IC50 (HCT 116 cells [3]) | IC50 (MDA-MB-231 cells [4]) | cytotoxicity at 24 h, 100 µM [5, 11] | cytotoxicity at 24 h, 100 µM [5, 12] | IC50 (JB6 Cl41 cells) | cytotoxicity at 24 h, 100 µM [6] | inhibition at 20 µM (HCT 116 cells [7]) | inhibition at 20 µM (MDA-MB-231 cells [8]) | prevention of cell migration (HCT 116 cells [9]) | prevention of cell migration compared to control (MDA-MB-231 cells [10]) | inhibitory activity against cell migration (in words) (MDA-MB-231 cells [10]) | toxicity against cell line (HCT 116 cells [3]; three days of treatment) | toxicity against cell line (MDA-MB-231 cells [4]; three days of treatment) | effective dose that inhibited viability of 50% cells (ED50) (human lung cancer A549) | effective dose that inhibited viability of 50% cells (ED50) (CNS cancer XF498) | effective dose that inhibited viability of 50% cells (ED50) (colon cancer HCT15) | effective dose that inhibited viability of 50% cells (ED50) (ovarian cancer SK-OV-3) | effective dose that inhibited viability of 50% cells (ED50) (melanoma SK-MEL-2)
1 | CCCCC/C=C\CCCCCCCCCCCCC(=O)OC[C@@H](C)CCC[C@@H](C)[C@H]1[C@@H](O)[C@H](O)[C@@H]2[C@]1(C)CC[C@@H]1[C@@]3(C)CC[C@H](O)C[C@@H]3[C@@H](O)[C@@H](O)[C@]12O [(25S)-5α-cholestane-3β,6α,7α,8,15α,16β-hexaol-26-yl 14′Z-eicosenoate] | did not possess inhibitory activity | did not possess inhibitory activity | – | – | – | – | – | – | – | – | – | – | – | – | – | – | – | – | – | –
2 | CCCCCCC=CCCCCC=CCCCC(=O)OCC(C)CCCC(C)C1C(O)C(O)C2C3CC(O)C4CC(O)CCC4(C)C3CCC12C [Compound 1, (25S)-5α-cholestane-3β,6β,15α,16β-tetraol-26-yl 5′Z,11′Z-octadecadienoate] | – | – | 73 µM | 74 µM | < 15% | < 15% | 81 µM | < 15% | 20% | 17% | 36% | 42% | – | – | – | – | – | – | – | –
3 | CCCCCCC=CCCCCCCCCCC(=O)OCC(C)CCCC(C)C1C(O)C(O)C2C3CC(O)C4CC(O)CCC4(C)C3CCC12C [Compound 2, (25S)-5α-cholestane-3β,6β,15α,16β-tetraol-26-yl 11′Z-octadecenoate] | – | – | 31 µM | 33 µM | < 15% | < 15% | 40 µM | < 15% | 27% | 26% | 73% | 50% | – | – | – | – | – | – | – | –
4 | CCCCCCCCC=CCCCCC=CCCCC(=O)OCC(C)CCCC(C)C1C(O)C(O)C2C3CC(O)C4CC(O)CCC4(C)C3CCC12C [Compound 3, (25S)-5α-cholestane-3β,6β,15α,16β-tetraol-26-yl 5′Z,11′Z-eicosadienoate] | – | – | 71 µM | 73 µM | < 15% | < 15% | 79 µM | < 15% | 18% | 15% | 30% | – | moderate inhibitory activity | – | – | – | – | – | – | –
5 | CCCCCCCCCCCCC=CCCCCCC(=O)OCC(C)CCCC(C)C1C(O)C(O)C2C3CC(O)C4CC(O)CCC4(C)C3CCC12C [Compound 4, (25S)-5α-cholestane-3β,6β,15α,16β-tetraol-26-yl 7′Z-eicosenoate] | – | – | – | – | < 15% | < 15% | – | < 15% | 16% | 10% | 24% | – | moderate inhibitory activity | non-toxic | non-toxic | – | – | – | – | –
6 | CC(C)[C@H](/C=C/[C@@H](C)[C@H]1C[C@@H](O)[C@H]2[C@@H]3C[C@H](O)[C@H]4C[C@@H](O)CC[C@]4(C)[C@H]3CC[C@@]21C)CO [certonardosterol D2] | – | – | – | – | – | – | – | – | – | – | – | – | – | – | – | 0.15 µg/mL | 0.07 µg/mL | 0.01 µg/mL | 0.08 µg/mL | 0.09 µg/mL
